# According to patent US4537729A, “Dimethylphosphoramidates” (Development of Finance Corporation of New Zealand, priority 1981, dated 1985):
# Like-named read-outs stand apart in the source and are kept apart here.
# How the values were obtained:
# L1210 tumour cells = assay: L1210 murine leukaemia cell culture, growth inhibition over 70 hours; assay type: cell-based; settings: Mus musculus
# P388 leukaemia = P388 leukaemia in vivo test in mice (i.p.); parameters: species or system mouse; settings: for ILS (percentage increase in life span): at optimal dose (OD), days 1, 5 and 9, P388 i.p., controls survive 11 days, >20% significant; for Active: at the stated dose, P388 in vivo
# Description: The P388 mouse leukaemia system has been shown by studies at the National Cancer Institute, U.S.A., to be a useful system for detecting agents with antitumour activity against clinical cancer (A. Goldin, J. M. Venditti, J. S. MacDonald, F. M. Muggia, J. E. Henney and V. T. De Vita, Europ.J.Cancer 17, 129-142 (1981).
# Tumour P388 i.p.--P388 cells were obtained as frozen stocks from Mason Research Inc., U.S.A., and passaged introperitoneally according to standard methods (Cancer Chemother.Rep. 3, Part 3, page 9 (1972) in DBA-2 mice of either sex. Groups of six Fl hybrid mice (DBA-2 male x C57 Bl female, g weight 20±1 g) were injected intraperitoneally with 10^6 cells on day 0.
# O.D.=optimal drug dose (in milligrams per kilogram), administered as a solution in 0.1 ml of 30% v/v ethyl alcohol in water on days 1, 5 and 9 after tumour inoculation. The drug is administered as a soluble acid addition salt.
# ILS=percentage increase in life span of treated animals over that of groups of control animals injected with tumour alone. The average survival of control mice was 11 days. Values of ILS greater than 20% are considered statistically significant.
# "Y. implies a significant value of drug activity at the stated dose.".
# [1] = Reversed-phase partition chromatography (Rm); assay type: physicochemical; settings: lipophilic-hydrophilic balance, linearly related to 1-octanol/water partition coefficients
# Description: Rm=a measure of the compound's lipophilic-hydrophilic balance from reversed-phase partition chromatography. Rm is linearly related to partition coefficients obtained in the 1-octanol/water system.
# aerobacter aerogenes = assay: Antibacterial activity; assay type: cell-based
# alcaligenes viscolactis = assay: Antibacterial activity; assay type: cell-based
# eschereichia coli = assay: Antibacterial activity; assay type: cell-based
# bacillus subtilis = assay: Antibacterial activity; assay type: cell-based
# sarcina lutea = assay: Antibacterial activity; assay type: cell-based
# [2] = test system: micrococcus lysodeikticus; assay: Antibacterial activity; assay type: cell-based
# neisseria catarrhalis = assay: Antibacterial activity; assay type: cell-based
# staphylococcus aureus = assay: Antibacterial activity; assay type: cell-based
# xanthomonas phaseoli = assay: Antibacterial activity; assay type: cell-based
# streptococcus faecalis = assay: Antibacterial activity; assay type: cell-based
# tumour = settings: literature; cited from earlier work
Compound,"IC50 (L1210 tumour cells; L1210, 70 h, read-out: ID50) [µM]",ILS (percentage increase in life span) (P388 leukaemia) [%],Active (P388 leukaemia),chromatographic logP [1],other results
COP(=O)(Nc1ccc(Nc2c3ccccc3nc3ccccc23)cc1)OC [Compound 1],0.015,74,Y,0.31,antibacterial activity (aerobacter aerogenes): active; antibacterial activity (alcaligenes viscolactis): active; antibacterial activity (eschereichia coli): active; antibacterial activity (bacillus subtilis): active; antibacterial activity (sarcina lutea): active; antibacterial activity [2]: active; antibacterial activity (neisseria catarrhalis): active; antibacterial activity (staphylococcus aureus): active; antibacterial activity (xanthomonas phaseoli): active; antibacterial activity (streptococcus faecalis): active
COc1cc(NP(=O)(OC)OC)ccc1Nc1c2ccccc2nc2ccccc12 [Compound 2],0.07,67,Y,0.47,–
COP(=O)(Nc1ccc(Nc2c3ccccc3nc3cc(C)ccc23)cc1)OC [Compound 3],0.0068,80,Y,0.49,–
COP(=O)(Nc1ccc(Nc2c3ccccc3nc3cc(Cl)ccc23)cc1)OC [Compound 4],0.016,54,Y,0.46,–
COc1cc(NP(=O)(OC)OC)ccc1Nc1c2ccccc2nc2cc(Cl)ccc12 [Compound 5],0.012,78,Y,0.61,–
COP(=O)(Nc1ccc(Nc2c3ccccc3nc3cc(Br)ccc23)cc1)OC [Compound 6],0.015,76,Y,0.47,–
COc1cc(NP(=O)(OC)OC)ccc1Nc1c2ccccc2nc2cc(Br)ccc12 [Compound 7],0.0049,83,Y,0.57,–
COP(=O)(Nc1ccc(Nc2c3ccccc3nc3cc([N+](=O)[O-])ccc23)cc1)OC [Compound 8],0.074,22,Y,0.14,–
COc1cccc2c(Nc3ccc(NP(=O)(OC)OC)cc3)c3ccccc3nc12 [Compound 9],0.02,44,Y,0.33,–
COc1cc(NP(=O)(OC)OC)ccc1Nc1c2ccccc2nc2c(OC)cccc12 [Compound 10],0.012,76,Y,0.47,–
CNC(=O)c1cccc2c(Nc3ccc(NP(=O)(OC)OC)cc3)c3ccccc3nc12 [Compound 11],0.097,38,Y,0.18,–
CNC(=O)c1cccc2c(Nc3ccc(NP(=O)(OC)OC)cc3OC)c3ccccc3nc12 [Compound 12],0.018,118,Y,0.28,–
COP(=O)(Nc1ccc(Nc2c3ccccc3nc3c(C)cccc23)cc1)OC [Compound 13],0.0089,111,Y,0.46,–
COc1cc(NP(=O)(OC)OC)ccc1Nc1c2ccccc2nc2c(C)cccc12 [Compound 14],0.018,106,Y,0.44,–
CNC(=O)c1cccc2c(Nc3ccc(NP(=O)(OC)OC)cc3OC)c3ccc(Cl)cc3nc12 [Compound 15],0.05,79,Y,0.54,–
COP(=O)(Nc1ccc(Nc2c3cccc(C)c3nc3c(C)cccc23)cc1)OC [Compound 16],0.017,109,Y,0.37,–
"CS(=O)(=O)Nc1ccc(Nc2c3ccccc3nc3ccccc23)cc1 [Compound 17, 4'-(9-acridinylamino)methanesulphonanilide, reference compound]",–,93,Y,–,"IC50 (L1210 tumour cells; murine L1210 leukaemia cells, 70 hours, counted cell number reduced by 50%, read-out: ID50 (the source's name)): 0.035 µM; antitumour effect (earlier work) (tumour): marked antitumour effect"
"COc1cc(NS(C)(=O)=O)ccc1Nc1c2ccccc2nc2ccccc12 [Compound 18, 4'-(9-acridinylamino)methanesulphon-m-anisidide, reference compound]",–,78,Y,–,–
